One test deals with U-87MG cells. Briefly: Cell death in U-87MG by free and PLGA-encapsulated peptide. To be noted: 12 h, PI staining and FACS; Fig 7B. It is filed as cell-based, human. As to the method: B. U-87MG cells (2×10^5) were incubated for 12 h with the indicated concentrations of DMSO, Retro-Tf-D-LP4 peptide (Pep), or Retro-Tf-D-LP4 encapsulated in PLGA nanoparticles (PLGA-Pep). Samples of Retro-Tf-D-LP4 encapsulated in PLGA nanoparticles were centrifuged (15000g, 5 min) to separate the supernatant (Sup), containing free peptide, and the pellet, containing encapsulated Retro-Tf-D-LP4 peptide. Cell death was analyzed by PI staining and FACS analysis. C. Graphical representation of the orthotopic animal experiment. […] E. Calculated tumor volumes after 20 (dark grey bars) and 29 (light grey bars) days post-treatment start. […]
100% DMSO and then diluted 20-fold with sterile DDW into three groups (6 animals/group) and treated every to reach a concentration of 25 mg/ml in a final DMSO third day with DMSO (1.44%), Retro-Tf-D-LP4 (10 concentration of 5%. PLGA (50 mg) was dissolved in mg/kg) or Retro-Tf-D-LP4 (10 mg/kg) encapsulated by acetone (1 ml). […] Tumor volume was analyzed using VivoQuant 2.10 10 ml of aqueous solution containing 1% PVA (w/v). […]
(Calbiochem, UK). […] Thirteen days post-inoculation, using various primary antibodies (sources and dilutions tumor volume was measured and calculated (100-130 as detailed in supplementary Table 2), followed by mm3) and mice were randomized into three groups (5 the appropriate HRP-conjugated secondary antibodies mice/group). […]

A further test has as its system U-251MG cells. Put plainly: Cell death by PI staining and flow cytometry, U-251MG. To be noted: 6 h at 37°C, serum-free medium, means ± SD (n=3), Fig 1H, read-out: IC50 for inducing cell death. It is filed as cell-based, human. The source says:
Figure 1 VDAC1-based peptides induce dramatic cell death of several brain tumor-derived cell lines but to lesser extent in primary brain cells A. IHC staining of VDAC1 of human normal brain (n=13) or glioblastoma (n=41) in tissue array slides (Biomax), as described in Materials and methods available online in Supplemental information. Percentages of sections stained at the intensity indicated are shown. […] The VDAC1-derived sequences Δ(1-14)N-terminus and LP4 are in green and pink, respectively. The cell-penetrating peptides Antp and Tf are in orange and blue, respectively. The loop shape of LP4 stabilized by a tryptophan zipper is in purple. The amino acids of Δ(1-14)N-terminus, LP4 and Antp are in the D configuration. The sequences of D-LP4 and Retro-D-LP4 are presented below. C. […] Cells were harvested, washed twice with PBS and cell death was analyzed by propidium iodide (PI) staining and flow cytometry. […] Cells were harvested, washed twice with PBS and cell death was analyzed by PI staining and flow cytometry. […]
Cells (6×10^5 /ml) were incubated in 500 μl serum-free medium with the peptide of interest for 6 h at 37°C in the presence of 5% CO2. The cells were then trypsinized, centrifuged (1500xg, 5 min), washed with PBS and analyzed for cell death using propidium iodide (PI) staining and flow cytometer (Beckton-Dickinson, San Jose, CA) and BD CellQuest Pro software. […]

The structures appear in SMILES notation. Non-standard residues stand in square brackets, D forms with d. Residues, ends and D or L forms follow the SMILES beside them.

As to `CC[C@H](C)[C@H](NC(=O)[C@H](Cc1ccc(O)cc1)NC(=O)[C@@H]1CCCN1C(=O)[C@H](CCCNC(=N)N)NC(=O)[C@H](Cc1c[nH]cn1)NC(=O)[C@H](CO)NC(=O)[C@H](Cc1c[nH]c2ccccc12)NC(=O)[C@@H](NC(=O)[C@H](Cc1c[nH]c2ccccc12)NC(=O)[C@H](CCC(=O)O)NC(=O)[C@@H](CCCCN)NC(=O)[C@@H](CCCCN)NC(=O)[C@@H](CC(C)C)NC(=O)[C@@H](CCC(=O)O)NC(=O)[C@H](NC(=O)[C@@H](C)NC(=O)[C@H](NC(=O)[C@@H](CC(N)=O)NC(=O)[C@@H](CC(C)C)NC(=O)[C@@H](C)NC(=O)[C@@H](Cc1c[nH]c2ccccc12)NC(=O)[C@H](NC(=O)[C@@H](C)NC(=O)CNC(=O)[C@@H](CC(N)=O)NC(=O)[C@@H](CO)NC(=O)[C@@H](CC(N)=O)NC(=O)[C@H](CCCCN)NC(=O)[C@H](Cc1c[nH]c2ccccc12)NC(=O)[C@@H](NC(=O)[C@H](Cc1c[nH]c2ccccc12)NC(=O)[C@@H](N)CCCCN)[C@@H](C)O)[C@H](C)O)C(C)C)[C@H](C)O)[C@@H](C)O)C(=O)N[C@@H](C)C(=O)N[C@@H](Cc1c[nH]cn1)C(=O)O` [Retro-Tf-D-LP4], the “cell death, U-87MG” value in the test with U-87MG cells is recorded as “induces cell death”.

As for `CC[C@@H](C)[C@@H](NC(=O)[C@@H](CCCCN)NC(=O)[C@H](NC(=O)[C@@H](CCC(N)=O)NC(=O)[C@@H](CCCNC(=N)N)NC(=O)[C@@H](CC(C)C)NC(=O)CNC(=O)[C@@H](Cc1ccccc1)NC(=O)CNC(=O)[C@@H](Cc1ccc(O)cc1)NC(=O)CNC(=O)[C@@H](CCCCN)NC(=O)[C@H](NC(=O)[C@@H](Cc1ccccc1)NC(=O)[C@H](NC(=O)[C@@H](CC(=O)O)NC(=O)[C@H](N)CCCNC(=N)N)C(C)C)[C@H](C)O)[C@H](C)CC)C(=O)N[C@H](Cc1c[nH]c2ccccc12)C(=O)N[C@H](Cc1ccccc1)C(=O)N[C@H](CCC(N)=O)C(=O)N[C@H](CC(N)=O)C(=O)N[C@H](CCCNC(=N)N)C(=O)N[C@H](CCCNC(=N)N)C(=O)N[C@H](CCSC)C(=O)N[C@H](CCCCN)C(=O)N[C@H](Cc1c[nH]c2ccccc12)C(=O)N[C@H](CCCCN)C(=O)N[C@H](CCCCN)C(=O)O` [D-ΔN-Ter-Antp] (H-[dR][dD][dV][dF][dT][dK]G[dY]G[dF]G[dL][dR][dQ][dI][dK][dI][dW][dF][dQ][dN][dR][dR][dM][dK][dW][dK][dK]-OH; N-terminus and C-terminus assumed), the IC50 in the test on U-251MG cells worked out at 4.7 ± 0.9 µM.

For the origin of these results see PMC5458211, “Mitochondrial VDAC1-based peptides: Attacking oncogenic properties in glioblastoma” (Oncotarget, 2017).
